Test results: patent US4648996A, “Phenyl substituted-2,4,6,8-nonatetraenoic acid” (Hoffmann-La Roche Inc., priority 1985, dated 1987)

Key:
in vivo = details: mouse
Source text: The compounds of formulae I and II and salts thereof can be utilized to treat patients suffering from rheumatoid arthritis and related disorders.

[1] = system: MBSA delayed hypersensitivity in mice; assay: Delayed hypersensitivity to methylated bovine serum albumin (MBSA); format: in vivo, Male and female MFI mice substrain E33; details: for % increase paw volume / % reduction (cf. arachis oil control): 10 doses
Method: Male and female MFI mice substrain E33. Initial weight approximately 25 gm.
Dosing with vehicle and retinoid commenced on day 0 and finished on day 9.
Each group consisted of 4 male and 6 female mice (separately caged). Drugs were dosed orally at a dose volume of 10 ml.kg^-1 (10 doses).

[2] = system: type II collagen arthritis in rats; assay: Established type II collagen arthritis; format: in vivo, Male and female Alderley Park Strain 1 rats; details: for Paw Vol / wt / GAG (urine glycosaminoglycans): 100 mg.kg^-1 p.o.
Method: Male and female Alderley Park Strain 1 rats.
Type 2 collagen (prepared from bovine nasal septum cartilage), Freunds incomplete adjuvant (Difco).
Rats were sensitized to type 2 collagen by injecting them intradermally with 1 ml. of a water in oil emulsion consisting of equal parts of a 1 mg.ml^-1 solution of type 2 collagen in 0.45M NaCl, 0.02M Tris, pH 7.4 and Freunds incomplete adjuvant. Rats developing arthritis were allocated on day 15 post sensitization to a control arachis oil treated group (6 male, 4 female) or to the Compound A treated group (6 male, 5 female). Hind paw volume measurements were taken to ensure even distribution of rats between groups. An overnight collection of urine was made on days 15/16 and dosing commenced on day 16. These urine samples were analyzed for glycosaminoglycans (GAG). Compound A was dosed at 100 mg.kg^-1 p.o. On days 19/20 a second overnight collection of urine was made. These urine samples were analyzed for glycosaminoglycans (GAG). On day 20 a second hind paw measurement was taken. Rats were then anaesthetised with sodium pentobarbitone, bled, killed and X-rays taken of hind and forepaws. Rats were dosed on days 16-19 inclusive (4 doses).

[3] = system: carrageenan pleurisy in rats; assay: Non-immune inflammation, 4 hr carrageenan pleurisy; format: in vivo, Female Alderley Park Strain 1 rats; details: 10 days
Method: Female Alderley Park Strain 1 rats weighing 170-205 g. at the start of the experiment were used.
Lambda-carrageenan. Prepared as a solution in saline and sterilized by autoclaving.
Compound A was administered orally to groups of 8 rats once daily for 10 days at doses of 10, 30 and 100 mg.kg^-1. Control animals received the vehicle. One hour after the last dose the animals were anesthetised with methohexitone (Brietal, 50 mg.kg^-1) and 0.2 ml of 1% lambda carrageenan was injected into the pleural cavity. Four hours later the animals were killed with an overdose of pentobarbitone (Sagatal), the pleural exudate was collected and the pleural cavity was washed out with 2 ml of phosphate-buffered saline (PBS-A, Oxoid). The exudate volume was recorded and cell counts were determined using an automatic cell counter (Coulter). Differential cell counts were performed on exudate smears stained with Giemsa stain in order to determine separately the numbers of polymorphonuclear leucocytes (PMN) and mononuclear cells (MN).
Immediately after recovery of the pleural exudates the tibiae of the animals were excised and their breaking strains were determined.
The body weights of the animals were recorded daily. Statistical analyses were performed using Student's two-tailed t test.

[4] = system: established adjuvant arthritis in rats; assay: Effect on the course of established adjuvant arthritis; format: in vivo, Male Lewis rats from Charles River; details: 100 mg/kg, 7 days
Method: Male Lewis rats from Charles River were used for these experiments.
Heat-killed, dessicated Mycobacteriam butyricum.
Adjuvant arthritis was induced by the injection of 0.1 ml of adjuvant [a suspension of heat-killed, dessicated Mycobacterium butyricum, 0.5% CW/V) in heavy mineral oil containing 0.2% digitonin] into the base of the tail. The arthritis was allowed to develop for 21 days and then the volume of both hind paws were measured using a mercury plethysmograph. The rats were divided into groups of 8 with equal mean paw volumes and then the rats were treated with Compound A, indomethacin (as a control drug), or vehicle for 7 days at the end of the treatment period, the volumes of both hind paws were again measured to assess antiinflammatory effects. Body weight changes were also followed and, at the end of the experiment, plasma was collected for determination of plasma fibrinogen (Exner et. al., Amer. J. Clin. Path, 71: 521-527).
^b Drugs were administered once a day for 7 days by intubation
^c Change in paw volume/body weight equals paw volume body weight on […]

CCCCCCCCCOc1ccccc1/C=C/C(C)=C/C=C/C(C)=C/C(=O)O [Compound A, All(E)-9-[2(nonyloxy)phenyl]-3,7-dimethyl-2,4,6,8-nonatetraenoic acid]
LD50 (in vivo; ip): > 1000 mg/kg | LD50 (in vivo; po): > 1000 mg/kg | % increase paw volume ([1]; 10 mg.kg^-1 oral): 102 ± 12% | % reduction (cf. arachis oil control) ([1]; 10 mg.kg^-1 oral): 6% | Mean body weight change ([1]; 10 mg.kg^-1 oral, female (F)): -0.2 g | Mean body weight change ([1]; 10 mg.kg^-1 oral, male (M)): 3.3 g | % increase paw volume ([1]; 30 mg.kg^-1 oral): 50 ± 7% | % reduction (cf. arachis oil control) ([1]; 30 mg.kg^-1 oral): 54% | Mean body weight change ([1]; 30 mg.kg^-1 oral, female (F)): 0.5 g | Mean body weight change ([1]; 30 mg.kg^-1 oral, male (M)): 2.8 g | % increase paw volume ([1]; 100 mg.kg^-1 oral): 40 ± 5% | % reduction (cf. arachis oil control) ([1]; 100 mg.kg^-1 oral): 63% | Mean body weight change ([1]; 100 mg.kg^-1 oral, female (F)): -0.2 g | Mean body weight change ([1]; 100 mg.kg^-1 oral, male (M)): 3.3 g | Paw Vol ([2]; day 16 (start of dosing)): 2.44 ± 0.08 | wt ([2]; day 16 (start of dosing)): 247 ± 14 g | GAG (urine glycosaminoglycans) ([2]; day 16 (urine days 15/16)): 1586 ± 307 µg | GAG (urine glycosaminoglycans) ([2]; day 20 (urine days 19/20)): 634 ± 72 µg | Paw Vol ([2]; day 20, after 4 doses): 2.66 ± 0.06 | wt ([2]; day 20, after 4 doses): 229 ± 10 g | weight during treatment (in words) ([2]; male and female rats, 100 mg.kg^-1): lost weight | Exudate Volume ([3]; 10 mg per kg per day p.o.): 0.94 mL | Exudate Volume % change ([3]; 10 mg per kg per day p.o.): -32.8% | Tibial Breaking Strain (Right + Left) % change ([3]; 10 mg per kg per day p.o.): -3.4% | Tibial Breaking Strain (Right + Left) Mean ([3]; 10 mg per kg per day p.o.): 6.5 kg | Total Cell Count ([3]; 10 mg per kg per day p.o.): 120.8 ×10^6 | Total Cell Count % change ([3]; 10 mg per kg per day p.o.): -6.5% | Total MN ([3]; 10 mg per kg per day p.o.): 8.4 ×10^6 | Total MN % change ([3]; 10 mg per kg per day p.o.): -17.4% | Total PMN ([3]; 10 mg per kg per day p.o.): 112.4 ×10^6 | Total PMN % change ([3]; 10 mg per kg per day p.o.): -5.6% | Exudate Volume ([3]; 30 mg per kg per day p.o.): 0.88 mL | Exudate Volume % change ([3]; 30 mg per kg per day p.o.): -36.9% | Tibial Breaking Strain (Right + Left) % change ([3]; 30 mg per kg per day p.o.): +1.5% | Tibial Breaking Strain (Right + Left) Mean ([3]; 30 mg per kg per day p.o.): 6.8 kg | Total Cell Count ([3]; 30 mg per kg per day p.o.): 112.1 ×10^6 | Total Cell Count % change ([3]; 30 mg per kg per day p.o.): -13.3% | Total MN ([3]; 30 mg per kg per day p.o.): 7.9 ×10^6 | Total MN % change ([3]; 30 mg per kg per day p.o.): -23.1% | Total PMN ([3]; 30 mg per kg per day p.o.): 104.2 ×10^6 | Total PMN % change ([3]; 30 mg per kg per day p.o.): -12.4% | Exudate Volume ([3]; 100 mg per kg per day p.o.): 0.80 mL | Exudate Volume % change ([3]; 100 mg per kg per day p.o.): -42.9% | Tibial Breaking Strain (Right + Left) % change ([3]; 100 mg per kg per day p.o.): -0.3% | Tibial Breaking Strain (Right + Left) Mean ([3]; 100 mg per kg per day p.o.): 6.7 kg | Total Cell Count ([3]; 100 mg per kg per day p.o.): 109.1 ×10^6 | Total Cell Count % change ([3]; 100 mg per kg per day p.o.): -15.7% | Total MN ([3]; 100 mg per kg per day p.o.): 7.5 ×10^6 | Total MN % change ([3]; 100 mg per kg per day p.o.): -26.7% | Total PMN ([3]; 100 mg per kg per day p.o.): 101.6 ×10^6 | Total PMN % change ([3]; 100 mg per kg per day p.o.): -14.7% | Plasma Fibrinogen [4]: 874 ± 57 mg/dL | Change in Body Weight ([4]; day 28 minus day 22): 5.2 ± 2.1 g | Change in Paw Volume ([4]; day 28 minus day 22, both hind paws): -0.96 ± 0.10 mL
